The values that follow are results of earlier work, collected in patent US9248119B2, “Modified release dosage forms of xanthine oxidoreductase inhibitor or xanthine oxidase inhibitors” (Takeda Pharmaceuticals U.S.A., Inc., priority 2010, dated 2016).

In one data set the test system is xanthine oxidoreductase. The conditions noted are these: cited from earlier work.
In data set [1] the test system is renal injury and hypertension associated with hyperuricemia. The conditions noted are these: Mazzali M, et al.; cited from earlier work.

Consider `CCc1oc2ccccc2c1C(=O)c1cc(I)c(O)c(I)c1` [Benziodarone], for which, in the data set with xanthine oxidoreductase, the “inhibition of xanthine oxidoreductase activity” value is “does not inhibit”. Besides, the “protection against renal injury and hypertension associated with hyperuricemia” value in data set [1] is recorded as “lower”.

For `Oc1ncnc2[nH]ncc12` [Allopurinol], the “protection against renal injury and hypertension associated with hyperuricemia” value in data set [1] is “prevent the renal injury and hypertension”.
